Results as given in publication PMC5581743, “Synthesis, characterization, anti-ulcer action and molecular docking evaluation of novel benzimidazole-pyrazole hybrids” (Chemistry Central Journal, 2017).

System: ethanol-induced gastric ulcers in rats
Assay: ethanol-induced gastric ulcer model in rats (anti-ulcerogenic activity)
Type: in vivo, Albino rats
Set-up: key to Ulcer index: sum of lesion lengths (mm) per stomach
Settings: for Ulcer index: mean ± SEM, n = 5; for % Inhibition: versus saline group
Procedure: Albino rats (weighing 180-220 g) were housed at the animal house of the […] Institute of Pharmaceutical Sciences under controlled environment (23-25 °C). Animals were kept in plastic cages with sawdust (changed at every 48 h) and were fasted for 24 h before starting the experiment. Animals were provided with tap water ad libitum and standard pellet diet. Experiments performed complied with rules of Institute of Laboratory Animal Resources, Commission on Life Sciences University, National Research Council (1996) and were approved by Ethical Committee of […] Institute of Pharmaceutical Sciences, […] International University. Albino rats (180-220 g) of either sex were divided into different groups (n = 5). Animals were fasted for 24 h before the study, but had free access to water. Animals in the control group received only normal saline (10 mL/kg). Compound 5a at doses of 100 and 500 μg/kg, (p. o.) was given to the animals in the treatment group. Same procedure was repeated for Compund 5b, 5c, 5d, 5e and 5f. Omeprazole (30 mg/kg) was used as a standard. The rats were sacrificed 1 h later and the stomach removed and observed for ulcers in the glandular region. The surface area of each lesion was measured and scored by method with described by Tan et al. with some modifications. The ulcer index for each rat was taken as the mean ulcer score (0: no ulcer; 1: US ≤ 0.5 mm^2; 2: 0.5 < US ≤ 2.5 mm^2; 3: 2.5 mm^2 < US ≤ 5 mm^2; 4: 5 mm^2 < US ≤ 10 mm^2; 5: 10 mm^2 < US ≤ 15 mm^2; 6: 15 mm^2 < US ≤ 20 mm^2; 7: 20 mm^2 < US ≤ 25 mm^2; 8: 25 mm^2 < US ≤ 30 mm^2; 9: 30 mm^2 < US ≤ 35 mm^2; 10: US > 35 mm^2). The sum of the length (mm) of all the lesions for each stomach was used as the ulcer index (UI). The percentage of inhibition (% I) was calculated using the following formula: %I=USc-USt×100/USc where USc = ulcer surface area of control and USt = ulcer surface area of test animal. The anti-ulcer activity of all the benzimidazole-pyrazole hybrids 5a-f was tested in vivo by ethanol-induced gastric ulcer model in rats. Rats received test compounds in two different doses; 100 and 500 μg/kg orally. Omeprazole (30 mg/kg) was used as a standard. The rats were sacrificed 1 h later and the stomach removed and observed for ulcers in the glandular region. The surface area of each lesion was measured and scored by method. […] Figure 2 show the gastric mucosa of rats. […] The results clearly indicated the greater anti-ulcer potential of our synthesized compounds as compared to omeprazole, the currently used anti-ulcer drug. […] It was observed that substitution pattern of both the aromatic rings attached to pyrazole ring effect the anti-ulcer activity. The highest activity was shown by compound 5d i.e. 83.1% at 500 μg/kg dose. All the compounds were docked against H^+/K^+ ATPase to assess the binding affinities and compared with Omeprazole which is a known mercapto benzimidazole derivative and H^+/K^+ ATPase inhibitor. […] 5d has maximum binding affinity of -9.8 kcal/mole due to maximum number of hydrogen bonding interactions with the target.

[1] = 30 mg/kg + ethanol (1 mL/100 g)
[2] = 100 µg/kg p.o. + ethanol (1 mL/100 g)
[3] = 500 µg/kg p.o. + ethanol (1 mL/100 g)

Row | SMILES | Ulcer index [1] | % Inhibition [1] | % Inhibition (30 mg/kg + ethanol (1 mL/100 g), listed as omeprazole) | Ulcer index [2] | % Inhibition [2] | Ulcer index [3] | % Inhibition [3]
1 | COc1ccc2[nH]c([S+]([O-])Cc3ncc(C)c(OC)c3C)nc2c1 (centres unmarked) [Omeprazole, reference compound] | 0.84 ± 0.01 | 83.1% | 83% |  |  |  | 
2 | COc1ccc(-c2cc(-c3ccccc3O)n(C(=O)CSc3nc4ccccc4[nH]3)n2)cc1O [Compound 5c, 2-(1H-benzimidazol-2-ylsulfanyl)-1-[5-(2-hydroxyphenyl)-3-(3-hydroxy-4-methoxyphenyl) -1H-pyrazol-1-yl]ethanone] |  |  |  | 3.52 ± 0.009 | 29.4% | 1.48 ± 0.009 | 70.3%
3 | O=C(CSc1nc2ccccc2[nH]1)n1nc(-c2ccccc2)cc1-c1ccccc1O [Compound 5a, 2-(1H-benzimidazol-2-ylsulfanyl)-1-[5-(2-hydroxyphenyl)-3-phenyl-1H-pyrazol-1-yl]ethanone] |  |  |  | 3.22 ± 0.009 | 35.4% | 1.07 ± 0.008 | 78.5%
4 | O=C(CSc1nc2ccccc2[nH]1)n1nc(-c2ccccc2)cc1-c1ccccc1 [Compound 5e, 2-(1H-benzimidazol-2-ylsulfanyl)-1-(3,5-diphenyl-1H-pyrazol-1-yl)ethanone] |  |  |  | 3.18 ± 0.01 | 36.2% | 1.06 ± 0.01 | 79%
5 | O=C(CSc1nc2ccccc2[nH]1)n1nc(-c2ccccc2O)cc1-c1ccccc1O [Compound 5b, 2-(1H-benzimidazol-2-ylsulfanyl)-1-[3,5-bis(2-hydroxyphenyl)-1H-pyrazol-1-yl]ethanone] |  |  |  | 3.48 ± 0.008 | 30.2% | 1.26 ± 0.009 | 74.7%
6 | COc1ccc(-c2cc(-c3ccccc3)nn2C(=O)CSc2nc3ccccc3[nH]2)cc1O [Compound 5f, 2-(1H-benzimidazol-2-ylsulfanyl)-1-[5-(3-hydroxy-4-methoxyphenyl)-3-phenyl-1H-pyrazol-1-yl]ethanone] |  |  |  | 3.75 ± 0.016 | 24.8% | 1.39 ± 0.02 | 72.1%
